Where a name gives a salt, the structure may show the parent alone.
How the values were obtained:
human EAAT2 = test: EAAT2 protein levels in PA-EAAT2 cells by Western blot; type: cell-based; conditions: PA-EAAT2 cells, 24 hr; for Fold increase for EAAT2 at indicated concentration (maximum activity): EAAT2 protein relative to DMSO; for concentration that reaches maximum activity: tested 0.0375-10 μM
Description: Compounds were evaluated in PA-EAAT2 cells, a primary astrocyte stably expressing human EAAT2 mRNAs (Kong et al., J Clin Invest. 2014:1255-67). Cells were treated with compound at 0.0375, 0.075, 0.15, 0.3, 0.6, 1.25, 2.5, 5, 10 μM for 24 hr and then harvested for measuring EAAT2 protein levels by Western blot analysis.

[1] = tested on: CA3-CA1 LTP in the hippocampus; test: Long-term potentiation (LTP) in acute hippocampal slices of treated wild-type mice; type: in vivo; conditions: 0.033, 0.33, and 3.3 mg/kg for seven days, vs vehicle
Description: Mice were treated with compound at 40 mg/kg (or as depicted) and forebrains were harvested for the gliosome preparation 24 hr (or as described) post-treatment. FIG. 2A: Western blots show dose-dependent increase of EAAT2 protein levels. FIG. 2B: Time-dependent fold increase in EAAT2 protein expression in response to compound treatment at 4 hours (1.54±0.13) and 24 hours (1.98±0.19) post-treatment. Quantification of EAAT2 expression time course (normalized to flotilin; n=4/group). Data represented as mean SEM and analyzed using one-way ANOVA with Tukey post-hoc test. *p<0.05, **p<0.01. FIG. 2C: Compound treatment enhances CA3-CA1 LTP in the hippocampus. Mice were treated with vehicle or compound for seven days and acute hippocampal sections were collected for LTP recordings. […] Data represented as mean SEM analyzed using one-way ANOVA with Bonferroni post-hoc tests. […]
At 24 hours post-treatment, mice were euthanized and forbrains were harvested. […] Acute hippocampal slices were then collected and assessed for changes in long-term potentiation (LTP).
Wild-type C57BL/6 mice (2-3 months old) were treated orally with compound 101 at 0.01, 0.033, 0.1, 0.33, 1, 3.33, 10, 20, 40, 60, and 100 mg/kg/day (voluntary ingestion of compound in honey) for seven or 28 days. […] Mice were then euthanized and acute hippocampal slices were collected and assessed for changes in long-term potentiation (LTP).

EAAT2 = EAAT2 protein levels in brains of wild-type C57BL/6 mice by Western blot; type: in vivo; conditions: oral 0.01-100 mg/kg/day for seven or 28 days
Description: Mice then were euthanized and brains were harvested for examining EAAT2 protein levels by Western blot analysis.
Wild-type C57BL/6 mice (2-3 months old) were treated orally with compound 101 at 0.01, 0.033, 0.1, 0.33, 1, 3.33, 10, 20, 40, 60, and 100 mg/kg/day (voluntary ingestion of compound in honey) for seven or 28 days. Mice then were euthanized and brains were harvested for examining EAAT2 protein levels by Western blot analysis. […] To determine the functional consequences of the increased EAAT2 to the synaptic plasticity, wild-type mice were treated with vehicle or compound 101 at 0.033, 0.33, and 3.3 mg/kg for seven days. Mice were then euthanized and acute hippocampal slices were collected and assessed for changes in long-term potentiation (LTP).

Compound | Fold increase for EAAT2 at indicated concentration (maximum activity) (human EAAT2) | concentration that reaches maximum activity (human EAAT2) | CA1 field potential responses to stimulation of CA3 afferents (LTP) [1] | EAAT2 protein levels in mouse brains (EAAT2)
COCCn1nc(-c2ccccn2)ccc1=O [Compound 172, 2-(2-Methoxyethyl)-6-(pyridin-2-yl)pyridazin-3(2H)-one] | 2.9 ± 0.1 fold | 0.3 µM |  | 
CN(C)CCOc1ccccc1NC(=O)Cn1nc(-c2ccccn2)ccc1=O [Compound 203, N-(2-(2-(Dimethylamino)ethoxy)phenyl)-2-(6-oxo-3-(pyridin-2-yl)pyridazin-1(6H)-yl)acetamide] | 2.0 ± 0.2 fold | 0.6 µM |  | 
COc1ccccc1-c1ccc(=O)n(CCN(C)C)n1 [Compound 206, 2-(2-(Dimethylamino)ethyl)-6-(2-methoxyphenyl)pyridazin-3(2H)-one hydrochloride] | 2.4 ± 0.1 fold | 0.15 µM |  | 
NCCn1nc(-c2ccccn2)ccc1=O [Compound 102, 2-(2-Aminoethyl)-6-(pyridin-2-yl)pyridazin-3(2H)-one hydrochloride] | 2.8 ± 0.3 fold | 1.25 µM |  | 
CC(c1ccccn1)n1nc(-c2ccccn2)ccc1=O (stereo not shown) [Compound 198, 6-(Pyridin-2-yl)-2-(1-(pyridin-2-yl)ethyl)pyridazin-3(2H)-one] | 2.0 ± 0.3 fold | 0.15 µM |  | 
CN(C)CCn1cc(-c2ccccn2)ncc1=O [Compound 214, 1-(2-(Dimethylamino)ethyl)-5-(pyridin-2-yl)pyrazin-2(1H)-one hydrochloride] | 1.5 ± 0.1 fold | 2.5 µM |  | 
CN(C)CCCn1nc(-c2ccccn2)ccc1=O [Compound 166, 2-(3-(Dimethylamino)propyl)-6-(pyridin-2-yl)pyridazin-3(2H)-one hydrochloride] | 2.0 ± 0.2 fold | 0.3 µM |  | 
CNCCn1nc(-c2ccccn2)ccc1=O [Compound 101, 2-(2-(Methylamino)ethyl)-6-(pyridin-2-yl)pyridazin-3(2H)-one hydrochloride] | 2.6 ± 0.2 fold | 0.3 µM | significantly increased responses | dose-dependently increased
CN(C)CCn1cc(-c2ccccn2)ccc1=O [Compound 213, 1′-(2-(Dimethylamino)ethyl)-[2,3′-bipyridin]-6′(1′H)-one hydrochloride] | 2.3 ± 0.1 fold | 0.6 µM |  | 
COc1ccc(-c2ccc(=O)n(CCN(C)C)n2)cc1 [Compound 208, 2-(2-(Dimethylamino)ethyl)-6-(4-methoxyphenyl)pyridazin-3(2H)-one hydrochloride] | 1.7 ± 0.2 fold | 0.3 µM |  | 
O=c1ccc(-c2ccccn2)nn1Cc1ncco1 [Compound 146, 2-(Oxazol-2-ylmethyl)-6-(pyridin-2-yl)pyridazin-3(2H)-one] | 2.6 ± 0.2 fold | 2.5 µM |  | 
Cn1ccnc1Cn1nc(-c2ccccn2)ccc1=O [Compound 201] | 2.5 ± 0.4 fold | 0.6 µM |  | 
CN(CCn1nc(-c2ccccn2)ccc1=O)c1ccccc1 [Compound 110, 2-(2-(Methyl(phenyl)amino)ethyl)-6-(pyridin-2-yl)pyridazin-3(2H)-one] | 2.3 ± 0.3 fold | 0.6 µM |  | 
O=c1ccc(-c2ccccn2)nn1CCN1CCOCC1 [Compound 126, 2-(2-Morpholinoethyl)-6-(pyridin-2-yl)pyridazin-3(2H)-one hydrochloride] | 2.2 ± 0.5 fold | 0.3 µM |  | 
Cc1cc(=O)n(CCN(C)C)nc1-c1ccccn1 [Compound 196, N,N-2-(2-(dimethylamino)ethyl)-5-methyl-6-(pyridin-2-yl)pyridazin-3(2H)-one hydrochloride] | 4.2 ± 0.2 fold | 0.6 µM |  | 
CNC(=O)CCn1nc(-c2ccccn2)ccc1=O [Compound 123, N-Methyl-3-(6-oxo-3-(pyridin-2-yl)pyridazin-1(6H)-yl)propanamide] | 2.5 ± 0.2 fold | 0.3 µM |  | 
O=C1CCCN1CCn1nc(-c2ccccn2)ccc1=O [Compound 133, 2-(2-(2-Oxopyrrolidin-1-yl)ethyl)-6-(pyridin-2-yl)pyridazin-3(2H)-one] | 1.9 ± 0.3 fold | 2.5 µM |  | 
COc1cccc(-c2ccc(=O)n(CCN(C)C)n2)c1 [Compound 207, 2-(2-(Dimethylamino)ethyl)-6-(3-methoxyphenyl)pyridazin-3(2H)-one hydrochloride] | 3.5 ± 0.3 fold | 0.15 µM |  | 
Cc1cc(-c2ccccn2)nn(CCN(C)C)c1=O [Compound 195, 2-(2-(Dimethylamino)ethyl)-4-methyl-6-(pyridin-2-yl)pyridazin-3(2H)-one hydrochloride] | 2.5 ± 0.2 fold | 0.3 µM |  | 

Source: US11702403B2, “EAAT2 activators and methods of using thereof” (OHIO STATE INNOVATION FOUNDATION, priority 2018, dated 2023)
